From US6479435B1, “Diaryl ethers and processes for their preparation and herbicidal and desiccant compositions containing them” (ISK Americas Incorporated, priority 1997, dated 2002)

Tests used:
Type in all cases: in vivo
[1] = tested on: Johnsongrass (Sorghum halepense, SORHA); assay: Pre-emerge greenhouse herbicide test, phytotoxicity rating; conditions: Sorghum halepense, pre-emergence, 336 h, 14 days after application, rating scale 0-100; for pest or weed control at 125 g/ha: Rate 125 g al/ha; for pest or weed control at 500 g/ha: Rate 500 g al/ha
Outline: (§1)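 Visual 0–100 injury rating (100 = all plants dead) taken 14 days after treatment. Rates of 125–1000 g ai/ha in acetone, 187 l/ha, were sprayed onto soil one day post-sowing; pots were surface-watered to incorporate, then bottom-watered.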

[2] = tested on: barnyardgrass (Echinochloa crusgalli, ECHCG); assay: as above; conditions: Echinochloa crus-galli, pre-emergence, 336 h, 14 days after application, rating scale 0-100; for pest or weed control at 125 g/ha: Rate 125 g al/ha; for pest or weed control at 500 g/ha: Rate 500 g al/ha
Outline: as §1

[3] = tested on: green foxtail (Setaria viridis, SETVI); assay: as above; conditions: Setaria viridis, pre-emergence, 336 h, 14 days after application, rating scale 0-100; for pest or weed control at 125 g/ha: Rate 125 g al/ha; for pest or weed control at 500 g/ha: Rate 500 g al/ha
Outline: as §1

[4] = tested on: lambsquarters (Chenopodium album, CHEAL); assay: as above; conditions: Chenopodium album, pre-emergence, 336 h, 14 days after application, rating scale 0-100; for pest or weed control at 125 g/ha: Rate 125 g al/ha; for pest or weed control at 500 g/ha: Rate 500 g al/ha
Outline: as §1

[5] = tested on: redroot pigweed (Amaranthus retroflexus, AMARE); assay: as above; conditions: Amaranthus retroflexus, pre-emergence, 336 h, 14 days after application, rating scale 0-100; for pest or weed control at 125 g/ha: Rate 125 g al/ha; for pest or weed control at 500 g/ha: Rate 500 g al/ha
Outline: as §1

[6] = tested on: sicklepod (Cassia obtusifolia, CASOB); assay: as above; conditions: Senna obtusifolia, pre-emergence, 336 h, 14 days after application, rating scale 0-100; for pest or weed control at 125 g/ha: Rate 125 g al/ha; for pest or weed control at 500 g/ha: Rate 500 g al/ha
Outline: as §1

[7] = tested on: Johnsongrass (Sorghum halepense, SORHA); assay: Post-emerge greenhouse herbicide test, phytotoxicity rating; conditions: Sorghum halepense, post-emergence, 336 h, 14 days after application, scale 0-100; for pest or weed control at 63 g/ha: rate 63 g ai/ha; for pest or weed control at 500 g/ha: rate 500 g ai/ha
Outline: (§2)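 Scores use a 0 (no damage) to 100 (complete kill) scale, taken 14 days after a foliar spray. Acetone solutions with 0.25% v/v non-ionic surfactant were applied by track sprayer at 187 l/ha and 63-1000 g ai/ha to bottom-watered 2-3 leaf plants.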

[8] = tested on: barnyardgrass (Echinochloa crusgalli, ECHCG); assay: as above; conditions: Echinochloa crus-galli, post-emergence, 336 h, 14 days after application, scale 0-100; for pest or weed control at 63 g/ha: rate 63 g ai/ha; for pest or weed control at 500 g/ha: rate 500 g ai/ha
Outline: as §2

[9] = tested on: green foxtail (Setaria viridis, SETVI); assay: as above; conditions: Setaria viridis, post-emergence, 336 h, 14 days after application, scale 0-100; for pest or weed control at 63 g/ha: rate 63 g ai/ha; for pest or weed control at 500 g/ha: rate 500 g ai/ha
Outline: as §2

[10] = tested on: ivyleaf morningglory (Ipomoea hederacea, IPOHE); assay: as above; conditions: Ipomoea, post-emergence, 336 h, 14 days after application, scale 0-100; for pest or weed control at 63 g/ha: rate 63 g ai/ha; for pest or weed control at 500 g/ha: rate 500 g ai/ha
Outline: as §2

[11] = tested on: lambsquarters (Chenopodium album, CHEAL); assay: as above; conditions: Chenopodium album, post-emergence, 336 h, 14 days after application, scale 0-100; for pest or weed control at 63 g/ha: rate 63 g ai/ha; for pest or weed control at 500 g/ha: rate 500 g ai/ha
Outline: as §2

[12] = tested on: large crabgrass (Digitaria sanguinalis, DIGSA); assay: as above; conditions: Digitaria sanguinalis, post-emergence, 336 h, 14 days after application, scale 0-100; for pest or weed control at 63 g/ha: rate 63 g ai/ha; for pest or weed control at 500 g/ha: rate 500 g ai/ha
Outline: as §2

[13] = tested on: redroot pigweed (Amaranthus retroflexus, AMARE); assay: as above; conditions: Amaranthus retroflexus, post-emergence, 336 h, 14 days after application, scale 0-100; for pest or weed control at 63 g/ha: rate 63 g ai/ha; for pest or weed control at 500 g/ha: rate 500 g ai/ha
Outline: as §2

[14] = tested on: sicklepod (Cassia obtusifolia, CASOB); assay: as above; conditions: Senna obtusifolia, post-emergence, 336 h, 14 days after application, scale 0-100; for pest or weed control at 63 g/ha: rate 63 g ai/ha; for pest or weed control at 500 g/ha: rate 500 g ai/ha
Outline: as §2

[15] = tested on: velvetleaf (Abutilon theophrasti, ABUTH); assay: as above; conditions: Abutilon theophrasti, post-emergence, 336 h, 14 days after application, scale 0-100; for pest or weed control at 63 g/ha: rate 63 g ai/ha; for pest or weed control at 500 g/ha: rate 500 g ai/ha
Outline: as §2

| Structure (SMILES) | pest or weed control at 125 g/ha [1] [%] | pest or weed control at 500 g/ha [1] [%] | pest or weed control at 125 g/ha [2] [%] | pest or weed control at 500 g/ha [2] [%] | pest or weed control at 125 g/ha [3] [%] | pest or weed control at 500 g/ha [3] [%] | pest or weed control at 125 g/ha [4] [%] | pest or weed control at 500 g/ha [4] [%] | pest or weed control at 125 g/ha [5] [%] | pest or weed control at 500 g/ha [5] [%] | pest or weed control at 125 g/ha [6] [%] | pest or weed control at 500 g/ha [6] [%] | pest or weed control at 63 g/ha [7] [%] | pest or weed control at 500 g/ha [7] [%] | pest or weed control at 63 g/ha [8] [%] | pest or weed control at 500 g/ha [8] [%] | pest or weed control at 63 g/ha [9] [%] | pest or weed control at 500 g/ha [9] [%] | pest or weed control at 63 g/ha [10] [%] | pest or weed control at 500 g/ha [10] [%] | other results |
| --- | --- | --- | --- | --- | --- | --- | --- | --- | --- | --- | --- | --- | --- | --- | --- | --- | --- | --- | --- | --- | --- |
| O=c1n(-c2cc(Oc3ncccc3C(F)(F)F)c(Cl)cc2F)c(=S)n2n1CCCC2 [Compound 8-18, 2-[4-chloro-2-fluoro-5-(3-trifluoromethyl-2pyridyloxy)phenyl]hexahydro-3-thioxo-1H-[1,2,4]triazolo[1,2-a]pyridazin-1-one] | 40 | 100 | 40 | 80 | 95 | 100 | 100 | 100 | 100 | 100 | 20 | 40 | 50 | 90 | 70 | 70 | 40 | 70 | 100 | 100 | pest or weed control at 63 g/ha [11]: 100%; pest or weed control at 500 g/ha [11]: 100%; pest or weed control at 63 g/ha [12]: 0%; pest or weed control at 500 g/ha [12]: 10%; pest or weed control at 63 g/ha [13]: 100%; pest or weed control at 500 g/ha [13]: 100%; pest or weed control at 63 g/ha [14]: 70%; pest or weed control at 500 g/ha [14]: 100%; pest or weed control at 63 g/ha [15]: 100%; pest or weed control at 500 g/ha [15]: 100% |
| O=c1n(-c2cc(Oc3ncccn3)c(Cl)cc2F)c(=S)n2n1CCCC2 [Compound 8-29, 2-[4-chloro-2-fluoro-5-(2-pyrimidyloxy)phenyl]hexahydro-3-thioxo-1H-[1,2,4]triazolo[1,2-a]pyridazin-1-one] | 100 | 100 | 100 | 100 | 100 | 100 | 100 | 100 | 100 | 100 | 100 | 100 | 90 | 100 | 80 | 100 | 90 | 100 | 100 | 100 | pest or weed control at 63 g/ha [11]: 100%; pest or weed control at 500 g/ha [11]: 100%; pest or weed control at 63 g/ha [12]: 50%; pest or weed control at 500 g/ha [12]: 100%; pest or weed control at 63 g/ha [13]: 100%; pest or weed control at 500 g/ha [13]: 100%; pest or weed control at 63 g/ha [14]: 100%; pest or weed control at 500 g/ha [14]: 100%; pest or weed control at 63 g/ha [15]: 100%; pest or weed control at 500 g/ha [15]: 100% |
| Nn1c(C(F)(F)F)cc(=O)n(-c2cc(Oc3ncccc3[N+](=O)[O-])c(Cl)cc2F)c1=O [Compound 9-1, 1-amino-3-[4-chloro-2-fluoro-5-(3-nitro-2-pyridyloxy)phenyl]-6-trifluoromethyl-1,2,3,4-tetrahydropyrimidine-2,4-dione] | 95 | 99 | 95 | 100 | 99 | 100 | 100 | 100 | 100 | 100 | 30 | 90 | 70 | 99 | 30 | 100 | 20 | 90 | 100 | 100 | pest or weed control at 63 g/ha [11]: 95%; pest or weed control at 500 g/ha [11]: 100%; pest or weed control at 63 g/ha [12]: 20%; pest or weed control at 500 g/ha [12]: 50%; pest or weed control at 63 g/ha [13]: 100%; pest or weed control at 500 g/ha [13]: 100%; pest or weed control at 63 g/ha [14]: 30%; pest or weed control at 500 g/ha [14]: 30%; pest or weed control at 63 g/ha [15]: 100%; pest or weed control at 500 g/ha [15]: 100% |
| Nn1c(C(F)(F)F)cc(=O)n(-c2cc(Oc3ccc(Br)cn3)c(Cl)cc2F)c1=O [Compound 9-2, 1-Amino-3-[4-chloro-2-fluoro-5-(5-bromo-2-pyridyloxy)phenyl]-6-trifluoromethyl-1,2,3,4-tetrahydropyrimidine-2,4-dione] | 60 | 90 | 20 | 95 | 80 | 100 | 100 | 100 | 80 | 100 | 0 | 50 | 10 | 70 | 10 | 80 | 10 | 60 | 100 | 80 | pest or weed control at 63 g/ha [11]: 100%; pest or weed control at 500 g/ha [11]: 95%; pest or weed control at 63 g/ha [12]: 0%; pest or weed control at 500 g/ha [12]: 30%; pest or weed control at 63 g/ha [13]: 100%; pest or weed control at 500 g/ha [13]: 100%; pest or weed control at 63 g/ha [14]: 30%; pest or weed control at 500 g/ha [14]: 95%; pest or weed control at 63 g/ha [15]: 100%; pest or weed control at 500 g/ha [15]: 100% |
